Source: patent US10828317B2, “Method of treating bacterial infections” (priority 2016, dated 2020)
Read-outs that look alike come from different tables or passages of the source.

Tests used:
[1] = system: E. coli EN0235; experiment: microbe, parasite or virus in culture; type: cell-based; conditions: Escherichia coli
[2] = system: P. aeruginosa EN0459; experiment: MIC; type: cell-based, Pseudomonas aeruginosa; conditions: Pseudomonas aeruginosa, read-out: MIC
[3] = system: E. coli EN001; experiment: MIC, WT (EN001 = EN0001, ATCC 25922); type: cell-based, Escherichia coli
[4] = system: E. coli EN012; experiment: MIC, WT; type: cell-based, Escherichia coli; conditions: Escherichia coli, EN012, combination FdUrd+trimethoprim+uridine, Table 8; read-out: MIC
[5] = system: E. coli EN0137; experiment: MIC, ESBL (CTX-M-15); type: cell-based; conditions: Escherichia coli, read-out: MIC
[6] = system: S. aureus EN008; experiment: MIC, Gram-positive control; type: cell-based, Staphylococcus aureus; conditions: Staphylococcus aureus, read-out: MIC
[7] = system: S. epidermidis EN0456; experiment: MIC; type: cell-based, Staphylococcus epidermidis; conditions: Staphylococcus epidermidis, read-out: MIC
[8] = system: E. coli EN002; experiment: MIC, DtoIC; type: cell-based, Escherichia coli; conditions: Escherichia coli, read-out: MIC
[9] = system: S. flexneri APV00907; experiment: MIC and antibiogram; type: cell-based; conditions: Shigella flexneri, Table 22A
Description: Inhibition of Heliobacter is important in view of increasing resistance and its association to gastric cancer.

[10] = system: P. aeruginosa EN0460; experiment: MIC; type: cell-based, Pseudomonas aeruginosa; conditions: Pseudomonas aeruginosa, read-out: MIC
[11] = system: M. luteus EN0455; experiment: MIC; type: cell-based, Micrococcus luteus; conditions: Micrococcus luteus, read-out: MIC
[12] = system: A. baumannii EN007; experiment: MIC, WT (EN007 = EN0007); type: cell-based, Acinetobacter baumannii
[13] = system: E. coli EN0136; experiment: MIC, ESBL (CTX-M-2); type: cell-based; conditions: Escherichia coli, read-out: MIC
[14] = system: S. sonnei APV00908; experiment: MIC and antibiogram; type: cell-based; conditions: Shigella sonnei, Table 22A
[15] = system: P. aeruginosa EN0422; experiment: MIC; type: cell-based, Pseudomonas aeruginosa; conditions: Pseudomonas aeruginosa, read-out: MIC
[16] = system: P. aeruginosa EN014; experiment: MIC, WT; type: cell-based, Pseudomonas aeruginosa; conditions: Pseudomonas aeruginosa, read-out: MIC
[17] = combination FdUrd+trimethoprim+uridine, Table 19
[18] = combination didanosine+trimethoprim+uridine, Table 20

In the case of COc1cc(Cc2cnc(N)nc2N)cc(OC)c1OC [Trimethoprim, trimethoprim], the MIC ([1]; EN0235, combination FdUrd+trimethoprim+uridine, Table 19) is reported as 0.125 µg/mL, the MIC ([1]; EN0235, combination didanosine+trimethoprim+uridine, Table 20) is reported as 0.25 µg/mL and the MIC ([2]; EN0459, Combination 1 AZT+trimethoprim+uridine, Table 16) is reported as > 4 µg/mL. For the same compound, the MIC ([2]; EN0459, Combination 2 AZT+trimethoprim+uridine+thymidine, Table 16) was > 4 µg/mL, the MIC ([2]; EN0459, combination AZT+trimethoprim+uridine, Table 6) was > 4 µg/mL and the MIC ([2]; EN0459, combination FdUrd+trimethoprim+uridine, Table 8) was > 8 µg/mL. The MIC ([2]; EN0459, combination didanosine+trimethoprim+uridine, Table 10) was > 8 µg/mL, the MIC ([3]; Escherichia coli, EN001, Combination 1 AZT+trimethoprim+uridine, Table 16, read-out: MIC) was 0.064 µg/mL and the MIC ([3]; Escherichia coli, EN001, combination FdUrd+trimethoprim+uridine, Table 8, read-out: MIC) was 0.25 µg/mL. It also gave an MIC ([3]; Escherichia coli, EN001, combination didanosine+trimethoprim+uridine, Table 10, read-out: MIC) of 0.25 µg/mL, an MIC [3, 17] of 0.5 µg/mL and an MIC [3, 18] of 0.5 µg/mL. The MIC [4] was 0.064 µg/mL, the MIC ([5]; EN0137, combination FdUrd+trimethoprim+uridine, Table 19) was > 8 µg/mL and the MIC ([5]; EN0137, combination didanosine+trimethoprim+uridine, Table 20) was > 8 µg/mL. The MIC ([6]; EN008, Combination 1 AZT+trimethoprim+uridine, Table 16) was 1 µg/mL, the MIC ([6]; EN008, Combination 2 AZT+trimethoprim+uridine+thymidine, Table 16) was > 4 µg/mL and the MIC ([6]; EN008, combination AZT+trimethoprim+uridine, Table 6) was 1 µg/mL. The MIC ([6]; EN008, combination FdUrd+trimethoprim+uridine, Table 8) was < 0.016 µg/mL, the MIC ([6]; EN008, combination didanosine+trimethoprim+uridine, Table 10) was 1 µg/mL and the MIC ([7]; EN0456, Combination 1 AZT+trimethoprim+uridine, Table 16) was 0.064 µg/mL. The MIC ([7]; EN0456, Combination 2 AZT+trimethoprim+uridine+thymidine, Table 16) was 2 µg/mL, the MIC ([7]; EN0456, combination AZT+trimethoprim+uridine, Table 6) was 0.06 µg/mL and the MIC ([7]; EN0456, combination FdUrd+trimethoprim+uridine, Table 8) was < 0.016 µg/mL. The MIC ([8]; EN002, Combination 1 AZT+trimethoprim+uridine, Table 16) was 0.016 µg/mL, the MIC ([8]; EN002, combination AZT+trimethoprim+uridine, Table 6) was 0.016 µg/mL and the MIC ([8]; EN002, combination FdUrd+trimethoprim+uridine, Table 8) was 0.064 µg/mL. The MIC ([8]; EN002, combination didanosine+trimethoprim+uridine, Table 10) was 0.064 µg/mL, the MIC ([9]; APV00907, combination AZT+trimethoprim+uridine) was 2 µg/mL and the MIC ([9]; APV00907, combination FdUrd+trimethoprim+uridine) was > 8 µg/mL. For the same compound, the MIC ([10]; EN0460, Combination 1 AZT+trimethoprim+uridine, Table 16) was > 4 µg/mL, the MIC ([10]; EN0460, Combination 2 AZT+trimethoprim+uridine+thymidine, Table 16) was > 4 µg/mL and the MIC ([10]; EN0460, combination AZT+trimethoprim+uridine, Table 6) was > 4 µg/mL. The MIC ([10]; EN0460, combination FdUrd+trimethoprim+uridine, Table 8) was > 8 µg/mL, the MIC ([10]; EN0460, combination didanosine+trimethoprim+uridine, Table 10) was > 8 µg/mL and the MIC ([11]; EN0455, Combination 1 AZT+trimethoprim+uridine, Table 16) was 2 µg/mL. The MIC ([11]; EN0455, Combination 2 AZT+trimethoprim+uridine+thymidine, Table 16) was > 4 µg/mL, the MIC ([11]; EN0455, combination AZT+trimethoprim+uridine, Table 6) was 2 µg/mL and the MIC ([11]; EN0455, combination FdUrd+trimethoprim+uridine, Table 8) was 4 µg/mL. For the same compound, the MIC ([11]; EN0455, combination didanosine+trimethoprim+uridine, Table 10) was 4 µg/mL, the MIC ([12]; Acinetobacter baumannii, EN007, Combination 1 AZT+trimethoprim+uridine, Table 16, read-out: MIC) was > 4 µg/mL and the MIC ([12]; Acinetobacter baumannii, EN007, Combination 2 AZT+trimethoprim+uridine+thymidine, Table 16, read-out: MIC) was > 4 µg/mL. For the same compound, the MIC ([12]; Acinetobacter baumannii, EN007, combination AZT+trimethoprim+uridine, Table 6, read-out: MIC) was > 4 µg/mL, the MIC ([12]; Acinetobacter baumannii, EN007, combination FdUrd+trimethoprim+uridine, Table 8, read-out: MIC) was > 8 µg/mL and the MIC ([12]; Acinetobacter baumannii, EN007, combination didanosine+trimethoprim+uridine, Table 10, read-out: MIC) was > 8 µg/mL. The MIC ([12]; combination AZT+trimethoprim+uridine, Table 17B) was >4 µg/mL, the MIC [12, 17] was >8 µg/mL and the MIC [12, 18] was >8 µg/mL. For the same compound, the MIC ([13]; EN0136, combination FdUrd+trimethoprim+uridine, Table 19) was 2 µg/mL, the MIC ([13]; EN0136, combination didanosine+trimethoprim+uridine, Table 20) was > 8 µg/mL and the MIC ([14]; APV00908, combination AZT+trimethoprim+uridine) was 0.03 µg/mL. The MIC ([14]; APV00908, combination FdUrd+trimethoprim+uridine) was > 8 µg/mL, the MIC ([15]; EN0422, Combination 1 AZT+trimethoprim+uridine, Table 16) was > 8 µg/mL and the MIC ([15]; EN0422, Combination 2 AZT+trimethoprim+uridine+thymidine, Table 16) was > 4 µg/mL. For the same compound, the MIC ([15]; EN0422, combination AZT+trimethoprim+uridine, Table 6) was > 4 µg/mL, the MIC ([15]; EN0422, combination FdUrd+trimethoprim+uridine, Table 8) was > 8 µg/mL and the MIC ([15]; EN0422, combination didanosine+trimethoprim+uridine, Table 10) was > 8 µg/mL. For the same compound, the MIC ([16]; EN014, Combination 1 AZT+trimethoprim+uridine, Table 16) was > 4 µg/mL, the MIC ([16]; EN014, Combination 2 AZT+trimethoprim+uridine+thymidine, Table 16) was > 4 µg/mL and the MIC ([16]; EN014, combination AZT+trimethoprim+uridine, Table 6) was > 4 µg/mL. The MIC ([16]; EN014, combination FdUrd+trimethoprim+uridine, Table 8) was > 8 µg/mL.
